From patent US20060052457A1, “Use of ppar alpha agonists for the treatment of vascular and renal diseases” (priority 2002, published 2006)
“Also recorded” adds a separate entry of the source.

Assays:
[1] = tested on: porcine coronary artery smooth muscle cells; test: Basal DNA synthesis without mitogenic stimulation, quiescent porcine coronary artery SMCs; assay type: cell-based; conditions: for basal DNA synthesis in the absence of mitogenic stimulation: quiescent porcine coronary artery SMCs
Description: (§1) Quiescent SMCs (panel A) and H4IIE cells (panel B) were treated with PGJ2 and incorporation of thymidine was measured as previously described. Quiescent SMCs were also treated with WY-14643 (panel C) and incorporation of thymidine was measured. The data are presented as means±s.e. (n=3).

[2] = tested on: H4IIE hepatoma cells; test: Basal DNA synthesis without mitogenic stimulation, quiescent H4IIE hepatoma cells; assay type: cell-based
Description: as §1

[3] = tested on: porcine coronary artery smooth muscle cells; test: [3H]thymidine incorporation (DNA synthesis) after PDGF stimulation, porcine coronary artery SMCs; assay type: cell-based; conditions: PDGF 0.1 μg, 72 h
Description: (§2) SMCs were prepared by explant culture as previously described, grown in 24-well culture dishes to 70% confluence and then placed into serum-free DMEM supplemented with insulin, ascorbate, pyruvate and selenium for 5 days. These conditions result in the cessation of cell growth, and markers of the contractile state are expressed. The cells were subsequently treated with PDGF (0.1 μg) in the presence or absence of WY-14643, and 2 μCi/mL [^3H]thymidine were added to the culture medium 24 hours later. Seventy-two hours following PDGF treatment, incorporation of thymidine into trichloroacetate-precipitable material was measured. The data, which is presented as means±s.e. (n=3), are shown for porcine SMCs (panel A), human saphenous vein SMCs (panel B) and human internal mammary artery SMCs (panel C). All values have been normalized relative to the incorporation in unstimulated quiescent cells (control=100).
Quiescent SMCs were treated with PDGF (01. μg/ml) in the presence and absence of PGJ2, and incorporation of thymidine was measured as previously described. The data are presented as means±s.e. (n=3).
Quiescent SMCs were treated with PDGF (0.1 μg) in the presence or absence of clofibrate, and incorporation of thymidine was measured as previously described. The data are presented as means±s.e. (n=3).

[4] = tested on: H4IIE hepatoma cells; test: [3H]thymidine incorporation (DNA synthesis) by H4IIE hepatoma cells after IGF-1; assay type: cell-based; conditions: IGF-1 0.1 μM, 72 h
Description: H4IIE hepatoma cells were cultured and quiescent cells were prepared in 24-well culture dishes by placing the cells into serum-free α-MEM for 3 days. The cells were treated with IGF-1 (0.1 μM) in the presence or absence of WY-14643, and 2 μCi/mL [^3H]thymidine were added concurrent with the treatment. Seventy-two hours following treatment, the cells were lysed and thymidine incorporation was measured as described above. The data are presented as means+/−s.e. (n=3).

[5] = tested on: human internal mammary artery SMCs; test: [3H]thymidine incorporation (DNA synthesis) after PDGF stimulation, human internal mammary artery SMCs; assay type: cell-based; conditions: PDGF 0.1 μg, 72 h
Description: as §2, with “C).” for “C). All values have been normalized relative to the incorporation in unstimulated quiescent cells (control=100).”

[6] = tested on: human proximal tubule cells; test: Growth (cell number, Coulter counter) of human proximal tubule cells; assay type: cell-based
Description: Human proximal tubule cells were purchased from Clonetics and propagated in 24-well culture dishes with Renal Epithelial Cell Basal medium (REBM) containing 0.5% fetal bovine serum (FBS). Treatments were added once the cells reached 40% confluence. Incubation was continued for 4 days, at which time the cells were detached by trypsinization and cell number measured with a Coulter counter. All comparisons are relative to a cell population treated with 5 μg/ml aphidicolin, a non-toxic inhibitor of cell proliferation. The data are presented as means+/−s.e. (n=6).

[7] = tested on: A10 smooth muscle cells; test: [3H]thymidine incorporation (DNA synthesis) by A10 smooth muscle cells after PDGF or IGF-1; assay type: cell-based, rat; conditions: A10 SMCs, 72 h
Description: […] were cultured and quiescent cells were prepared in 24-well culture dishes as described in the legend for FIG. 2. The cells were treated with PDGF (0.1 μg) or IGF-1 (0.1 μM) in the presence or absence of WY-14643, and 2 μCi/mL [^3H]thymidine were added to the medium concurrent with the mitogens. Seventy-two hours following treatment, the cells were lysed and thymidine incorporation was measured as described above. […] (n=3), for A10 cells treated with PDGF (panel A) and IGF-1 (panel B).

[8] = tested on: Porcine coronary arteries; test: Organ culture model of restenosis (balloon angioplasty ex vivo, neointimal index); assay type: cell-based; conditions: 250 μM continuous, 14 days in culture after balloon angioplasty ex vivo
Description: Porcine coronary arteries were subjected to balloon angioplasty ex vivo and placed into culture for 14 days. Treatment with WY-14643 (250 μM) was continuous over the entire time period. Subsequently, the vessel segments were sectioned and morphometry was employed to quantify the extent of restenosis. The neointimal index is defined as: neointimal area/medial area. The data are presented as means±s.e. (n=8). Control=no balloon angioplasty.

[9] = tested on: human saphenous vein SMCs; test: [3H]thymidine incorporation (DNA synthesis) after PDGF stimulation, human saphenous vein SMCs; assay type: cell-based; conditions: PDGF 0.1 μg, 72 h
Description: as §2, with “C).” for “C). All values have been normalized relative to the incorporation in unstimulated quiescent cells (control=100).”

[10] = tested on: smooth muscle cells; test: DNA synthesis by smooth muscle cells with PPAR-gamma agonists (FIG. 13); assay type: cell-based

SMILES	basal DNA synthesis in the absence of mitogenic stimulation [1]	basal DNA synthesis in the absence of mitogenic stimulation [2]	DNA synthesis (thymidine incorporation) in response to PDGF stimulation [3]	DNA synthesis in response to stimulation by IGF-1 [4]	DNA synthesis (thymidine incorporation) in response to PDGF stimulation [5]	apparent toxicity / cytotoxicity (FIG. 9) ([1]; stated with reference to FIG. 9)	growth of human proximal tubule cells (cell number) ([6]; 4 days incubation, relative to aphidicolin 5 μg/ml)	apparent toxicity in primary human renal proximal tubule cells ([6]; primary cultures)	DNA synthesis in response to IGF-1 stimulation ([7]; IGF-1 0.1 μM)	DNA synthesis in response to PDGF stimulation ([7]; PDGF 0.1 μg)	neointimal proliferation / restenosis (neointimal index) [8]	DNA synthesis (thymidine incorporation) in response to PDGF stimulation [9]	inhibition of DNA synthesis by smooth muscle cells [10]
CCCCC[C@H](O)/C=C/[C@H]1C(=O)C=C[C@@H]1C/C=C\CCCC(=O)O [PGJ2]	inhibits basal DNA synthesis	inhibits basal DNA synthesis	inhibits DNA synthesis; also recorded: is inhibitory	–	–	–	–	–	–	–	–	–	–
Cc1cccc(Nc2cc(Cl)nc(SCC(=O)O)n2)c1C [WY-14643]	has no effect	–	inhibited DNA synthesis; also recorded: can inhibit smooth muscle cell proliferation	inhibits DNA synthesis; also recorded: prevented cell growth	inhibited DNA synthesis	without apparent toxicity	prevented cell growth; also recorded: effectively inhibits the growth	without apparent toxicity	does not inhibit DNA synthesis; also recorded: could not inhibit the growth	does not inhibit DNA synthesis; also recorded: could not inhibit the growth	inhibits neointimal proliferation; also recorded: prevent restenosis	inhibited DNA synthesis	–
CCc1ccc(CCOc2ccc(CC3SC(=O)NC3=O)cc2)nc1 (stereo not drawn) [piaglitazone]	–	–	–	–	–	–	–	–	–	–	–	–	are not
